Source: patent US12018327B2, “Methods and compositions relating to epoxide hydrolase genes” (The Regents of the University of California, priority 2018, dated 2024)

Columns and labels:
[1] = tested on: human DCs; assay: Gene expression in human DCs by qPCR; type: cell-based; details: 130 μM, two days; relative to beta-actin
Method: Gene expression was examined in human DCs. DCs were isolated as described above and treated for two days with 130 μM 12,13 DiHOME. Cells were washed twice in PBS, and RNA was extracted using the RNAqueous™ Micro Kit (Ambion, Foster City, CA). The RT2 First Strand Kit (Qiagen, Germantown, MD) was used to synthesize cDNA, and expression of CD36, CD1a, FABP4, and HADH relative to beta-actin was measured using Power SYBR Green PCR Master Mix (ThermoFisher Scientific, Waltham, MA) and a QuantStudio 6 Real-Time PCR system (ThermoFisher Scientific, Waltham, MA).

[2] = target: transient receptor potential vanilloid 1 (TRPV1) (Homo sapiens, UniProt Q8NER1); details: ref [15]; cited from earlier work
[3] = Quantification of 12,13 DiHOME in lungs and plasma by LC-MS after peritoneal injection; type: in vivo, mice; details: 30 mg kg^−1 peritoneal, vs vehicle
Method: For quantification of 12,13 DiHOME in the lungs and plasma, six-week-old female C57B6 mice were purchased from Jackson Laboratories (Sacramento, CA) and treated with 30 mg kg^−1 12,13 DiHOME solubilized in 10% DMSO or vehicle (10% DMSO) by peritoneal injection. Three hours after a single injection mice were sacrificed, and lung tissue and plasma were collected and frozen immediately in liquid nitrogen. 12,13 DiHOME was extracted from tissue and plasma using an established solid phase extraction protocol. In brief, flash frozen tissue was massed and added to a Lysing Matrix E Tube (MP Biomedicals, Santa Ana, CA) containing 1 mL of methanol, 10 μL 0.2 mg mL^−1 BHT/EDTA, and 1.25 ng 12,13 DiHOME-D4 (Cayman Chemical, Ann Arbor, MI) then homogenized as described above. Tissue samples were spun for 10 minutes at 2125×g, and supernatant was transferred to a falcon tube containing 19 mL deionized water to generate a 5% methanol solution. Plasma samples were thawed on ice, and 10 μL 0.2 mg mL^−1 BHT/EDTA and 1.25 ng 12,13 DiHOME-D4 were added to 250 μL of thawed plasma. All samples were extracted using a Waters Oasis HLB Cartridges (60 mg of sorbent, […] particle size; Waters, Milford, MA) as previously described. […]

[4] = tested on: human DCs; assay: IL-10 secretion from human DCs, cytometric bead array; type: cell-based
Method: IL-10 secretion was measured using a cytometric bead array (BD Biosciences, San Jose, CA). Human DCs were isolated from the peripheral blood mononuclear cells (PBMCs) of two healthy human donors as previously described and treated with increasing concentrations of 12,13 DiHOME (Cayman Chemical, Ann Arbor, MI) solubilized in 0.2% dimethylsulfoxide (DMSO). […] IL-10 concentrations were determined according to the manufacturer's instructions.

transient receptor potential vanilloid 1 (TRPV1), sequence (Q8NER1 whole entry, species assumed): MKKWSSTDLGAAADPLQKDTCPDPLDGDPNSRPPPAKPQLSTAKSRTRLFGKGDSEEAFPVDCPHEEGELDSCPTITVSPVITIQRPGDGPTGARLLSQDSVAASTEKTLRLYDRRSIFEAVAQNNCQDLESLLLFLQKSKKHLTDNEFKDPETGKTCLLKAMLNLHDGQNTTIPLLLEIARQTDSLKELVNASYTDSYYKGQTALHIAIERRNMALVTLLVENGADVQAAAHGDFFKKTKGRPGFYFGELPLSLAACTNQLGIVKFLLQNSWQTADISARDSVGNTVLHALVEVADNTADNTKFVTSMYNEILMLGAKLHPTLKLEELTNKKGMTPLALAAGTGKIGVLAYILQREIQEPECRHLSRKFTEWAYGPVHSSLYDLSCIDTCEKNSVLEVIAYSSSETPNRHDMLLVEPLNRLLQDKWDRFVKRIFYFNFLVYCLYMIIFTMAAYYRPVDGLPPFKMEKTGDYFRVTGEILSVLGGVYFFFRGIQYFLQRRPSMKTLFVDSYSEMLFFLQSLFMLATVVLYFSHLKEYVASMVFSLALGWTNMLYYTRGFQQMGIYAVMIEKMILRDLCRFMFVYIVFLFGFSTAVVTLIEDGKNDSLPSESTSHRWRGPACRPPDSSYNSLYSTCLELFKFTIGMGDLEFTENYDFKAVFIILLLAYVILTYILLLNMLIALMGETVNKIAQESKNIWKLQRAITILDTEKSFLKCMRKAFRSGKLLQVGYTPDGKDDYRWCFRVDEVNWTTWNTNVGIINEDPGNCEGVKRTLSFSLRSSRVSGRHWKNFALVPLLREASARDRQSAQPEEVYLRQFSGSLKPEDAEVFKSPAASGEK

## CCCCCC(O)C(O)C/C=C\CCCCCCCC(=O)O (stereo not shown) [12,13 DiHOME]
[1]
  expression of CD1a (RNA): significant decrease
  expression of CD36 (RNA): significant increases
  expression of FABP4 (RNA): significant increases
  expression of HADH (RNA): significant increases
[2]
  action on TRPV1: activator
[3]; 3 hours post-delivery
  concentration of 12,13 DiHOME in the lungs: significantly increased
[3]; three hours after injection
  concentration of 12,13 DiHOME in the plasma: significantly increased
[4]; 130 μM, 24 hr
  IL-10 secretion 24 hours after treatment: significant decreases
[4]; 130 μM, 48 hr
  IL-10 secretion 48 hours after treatment: significant decreases
[4]; 75, 130, 200 μM, supernatant after 24 hours
  IL-10 secretion from human DCs: dose-dependent decrease
